The values that follow come from article PMC2562352 (Journal of medicinal chemistry, 2008).

Each structure is given as a SMILES string.

For the first data set, the system named is yellow fever virus.
Experiment: not given
In kind it is cell-based, yellow fever virus (YFV 17D).
Details: not given
Take `COC(=O)c1sc(N(Cc2ccc(C(C)=O)cc2)Cc2ccc(C(C)=O)cc2)nc1C` [Compound 18, Methyl 2-(Bis(4-acetylbenzyl)amino)-4-methylthiazole-5-carboxylate]: the “antiviral activity vs. yellow fever virus (in words)” value is recorded as “active”.
For `Nc1ccc(SCc2csc(-c3cccnc3)n2)cc1` [Compound 28], the “antiviral activity vs. yellow fever virus (in words)” value was “lose antiviral activity”.
The same measure, in the same setting: for `Nc1ccccc1SCc1csc(-c2cccnc2)n1` [Compound 29] the value was “lose antiviral activity”; for `CC(=O)c1ccc(NC(=O)Nc2nc(C)c(C(=O)O)s2)cc1` [Compound 4, 2-[3-(4-Acetylphenyl)-ureido]-4-methylthiazole-5-carboxylic Acid], “lost its activity”.
Same read-out and setting: the entry for `C/C(=N\NC(N)=O)c1ccc(NC(=O)Nc2nc(C)c(C(=O)NCc3ccc(Cl)cc3Cl)s2)cc1` [Compound 1, (E)-2-(3-(4-(1-(2-Carbamoylhydrazono)-ethyl)-phenyl)-ureido)-N-(2,4-dichlorobenzyl)-4-methylthiazole-5-carboxamide] is “inactive”; for `CC(=O)c1ccc(NC(=O)Nc2nc(C)c(C(=O)NCc3ccc(Cl)c(Cl)c3)s2)cc1` [Compound 8, 2-(3-(4-Acetylphenyl)-ureido)-N-(3,4-dichlorobenzyl)-4-methylthiazole-5-carboxamide] it is “active”.
For `Clc1ccc(-c2nc(CSc3cccc(Cl)c3)cs2)cc1` [Compound 30], the “antiviral activity vs. yellow fever virus (in words)” value is “lose antiviral activity”.
For the compound `Cc1nc(-n2nc(-c3ccccc3)cc2-c2ccccc2)sc1C(=O)NCc1ccc(Cl)c(Cl)c1` [Compound 11, N-(3,4-Dichlorobenzyl)-2-(3,5-diphenyl-1H-pyrazol-1-yl)-4-methylthiazole-5-carboxamide], the “antiviral activity relative to parent compound M02” value worked out at 10 times.
`CC(=O)c1ccc(NC(=O)Nc2nc(C)c(C(=O)NCc3ccc(Cl)cc3Cl)s2)cc1` [Compound 7, 2-(3-(4-Acetylphenyl)-ureido)-N-(2,4-dichlorobenzyl)-4-methylthiazole-5-carboxamide]: the “antiviral activity vs. yellow fever virus (in words)” value is “inactive”.
As to `COC(=O)c1sc(-c2ccc(Cl)cc2)nc1C` [Compound 32, 2-(4-Chlorophenyl)-4-methyl-thiazole-5-carboxylic Acid Methyl Ester], the “antiviral activity vs. yellow fever virus (in words)” value was “inactive”.
Turning to `C/C(=N\NC(=N)N)c1ccc(NC(=O)Nc2nc(C)c(C(=O)NCc3ccc(Cl)cc3Cl)s2)cc1` [Compound 2, (E)-2-(3-(4-(1-(2-Carbamimidoylhydrazono)-ethyl)-phenyl)-ureido)-N-(2,4-dichlorobenzyl)-4-methylthiazole-5-carboxamide], the “antiviral activity vs. yellow fever virus (in words)” value is listed as “active”.

A further data set relates to BHK cells. Description: Cell viability assay. The settings on record: CC50 compared with M02.
As to `Cc1nc(-n2nc(-c3ccccc3)cc2-c2ccccc2)sc1C(=O)NCc1ccc(Cl)c(Cl)c1` [Compound 11, N-(3,4-Dichlorobenzyl)-2-(3,5-diphenyl-1H-pyrazol-1-yl)-4-methylthiazole-5-carboxamide], the “cytotoxicity relative to parent compound M02 (times less)” value is given as 2.7 times.
